# Laboratory results as given in patent US9320276B2, “N-hetarylmethyl pyrazolylcarboxamides” (BAYER INTELLECTUAL PROPERTY GMBH, priority 2010, dated 2016).
# Experiments:
# [1] = logP by HPLC on reversed-phase column (EEC Directive 79/831 Annex V.A8); assay type: physicochemical; settings: HPLC on reversed-phase column (C 18), 40° C., 0.1% aqueous formic acid and acetonitrile, linear gradient 10% to 90% acetonitrile
# Procedure: In table 1, the logP values were determined in accordance with EEC Directive 79/831 Annex V.A8 by HPLC (High Performance Liquid Chromatography) on a reversed-phase column (C 18), using the method described below: Temperature: 40° C.; Mobile phases: 0.1% aqueous formic acid and acetonitrile; linear gradient from 10% acetonitrile to 90% acetonitrile. Calibration was carried out using unbranched alkan-2-ones (comprising 3 to 16 carbon atoms) with known logP values (determination of the logP values by the retention times using linear interpolation between two successive alkanones). lambda-max-values were determined using UV-spectra from 200 nm to 400 nm and the peak values of the chromatographic signals.
# Pyrenophora teres = assay: in vivo preventive test on Pyrenophora teres (barley); settings: 500 ppm of active ingredient, evaluated 7-9 days after inoculation
# Procedure: Solvent: 49 parts by weight of N,N-dimethylformamide Emulsifier: 1 part by weight of alkylaryl polyglycol ether To produce a suitable preparation of active compound, 1 part by weight of active compound is mixed with the stated amounts of solvent and emulsifier, and the concentrate is diluted with water to the desired concentration. To test for preventive activity, young plants are sprayed with the preparation of active compound at the stated rate of application. One day after this treatment, the plants are inoculated with an aqueous spore suspension of Pyrenophora teres. The plants remain for 48 hours in an incubation cabinet at 22° C. and a relative atmospheric humidity of 100%. Then the plants are placed in a greenhouse at a temperature of approximately 20° C. and a relative atmospheric humidity of approximately 80%. The test is evaluated 7-9 days after the inoculation. 0% means an efficacy which corresponds to that of the untreated control while an efficacy of 100% means that no disease is observed.
Structure (SMILES),logP [1],Efficacy (Pyrenophora teres)
CCN(Cc1c(C)nn(CC)c1C)C(=O)c1c(C(F)F)nn(C)c1F [Example 79],1.72,–
CCN(Cc1c(C)nn(CC)c1C)C(=O)c1c(C(F)F)nn(C)c1Cl [Example 78],1.82,–
CC(C)N(Cc1ccc(Cl)nc1)C(=O)c1c(C(F)F)nn(C)c1Cl [Example 64],2.49,–
Cn1nc(C(F)F)c(C(=O)N(Cc2cccnc2)CC(F)(F)F)c1F [Example 14],1.20,–
Cc1cc(CN(C(=O)c2c(C(F)F)nn(C)c2Cl)C2CC2)c(C)n1-c1ccccc1 [Example 146],3.94,–
Cc1occc1C1(NC(=O)c2c(C(F)F)nn(C)c2Cl)CCCC1 [Example 23],3.11,100%
Cn1nc(C(F)F)c(C(=O)N(Cc2cc(-c3ccc(Cl)cc3)no2)C2CC2)c1Cl [Example 154],3.59,100%
CCn1cc(CNC(=O)c2c(C(F)F)nn(C)c2F)c(C)n1 [Example 47],1.31,–
CSc1ncc(C(C(C)C)N(C)C(=O)c2c(C(F)F)nn(C)c2Cl)c(C(F)(F)F)n1 (stereo not shown) [Example 158],3.59,–
C=CCN(Cc1csc(C)n1)C(=O)c1c(C(F)F)nn(C)c1Cl [Example 43],2.20,–
CC(C)C(c1cncnc1)N(C)C(=O)c1c(C(F)F)nn(C)c1Cl (stereo not shown) [Example 19],1.76,–
Cc1ccsc1CN(C)C(=O)c1c(C(F)F)nn(C)c1Cl [Example 41],2.58,–
CC(c1cccc2ccsc12)N(C(=O)c1c(C(F)F)nn(C)c1Cl)C1CC1 (stereo not shown) [Example 92],3.61,100%
Cn1nc(C(F)F)c(C(=O)NC2(c3cccs3)CCCC2)c1Cl [Example 33],3.13,–
Cn1nc(C(F)F)c(C(=O)N(Cc2cc(C(F)(F)F)nc3ccccc23)C2CC2)c1F [Example 159],3.58,100%
Cn1nc(C(F)F)c(C(=O)N(Cc2ccco2)C2CCCCC2)c1F [Example 8],3.21,–
Cn1nc(C(F)F)c(C(=O)NC2(c3ccco3)CCCC2)c1F [Example 12],2.70,–
Cn1nc(C(F)F)c(C(=O)N(Cc2cc3ccccc3n2-c2ccccc2)C2CC2)c1Cl [Example 156],4.13,90%
CN(Cc1cscc1Br)C(=O)c1c(C(F)F)nn(C)c1Cl [Example 134],2.70,–
CCCN(Cc1cccs1)C(=O)c1c(C(F)F)nn(C)c1Cl [Example 29],2.90,–
Cc1nc(-c2ccccc2)sc1CN(C)C(=O)c1c(C(F)F)nn(C)c1Cl [Example 148],2.90,–
Cn1nc(C(F)F)c(C(=O)NCc2ccc(Cl)nc2)c1Cl [Example 69],1.82,–
CCN(Cc1cn(CC)nc1C)C(=O)c1c(C(F)F)nn(C)c1F [Example 45],1.69,–
Cn1ccc(C2(NC(=O)c3c(C(F)F)nn(C)c3Cl)CCCC2)n1 [Example 25],1.93,–
CC(C)N(Cc1ccc(Cl)nc1)C(=O)c1c(C(F)F)nn(C)c1F [Example 65],2.33,–
Cn1nc(C(F)F)c(C(=O)N(Cc2ccc(Cl)nc2)C2CCCC2)c1Cl [Example 68],2.94,–
CN(Cc1cc(-c2ccc(Cl)cc2)no1)C(=O)c1c(C(F)F)nn(C)c1F [Example 152],3.04,–

Structure (SMILES),logP [1],Efficacy (Pyrenophora teres)
CC(C1CC1)N(Cc1ccco1)C(=O)c1c(C(F)F)nn(C)c1F (stereo not shown) [Example 3],2.82,–
CN(Cc1cccnc1Cl)C(=O)c1c(C(F)F)nn(C)c1F [Example 52],1.72,–
Cn1nc(C(F)F)c(C(=O)N(Cc2cccnc2)CC(F)(F)F)c1Cl [Example 13],1.37,–
Cc1onc(-c2ccccc2)c1CN(C)C(=O)c1c(C(F)F)nn(C)c1Cl [Example 129],2.59,–
CN(Cc1cncc(Cl)c1)C(=O)c1c(C(F)F)nn(C)c1F [Example 56],1.76,–
CN(Cc1sc2ccccc2c1Cl)C(=O)c1c(C(F)F)nn(C)c1Cl [Example 141],3.63,–
Cn1nc(C(F)F)c(C(=O)N(Cc2cnc(Cl)cc2Cl)C2CC2)c1Cl [Example 119],2.90,–
Cn1nc(C(F)F)c(C(=O)N(Cc2nc3ccccc3s2)C2CC2)c1Cl [Example 97],2.80,–
Cn1nc(C(F)F)c(C(=O)NC2(c3cccnc3)CCCC2)c1Cl [Example 17],0.96,–
Cc1cc(C(C)N(C(=O)c2c(C(F)F)nn(C)c2Cl)C2CC2)c(C)o1 (stereo not shown) [Example 36],3.37,–
CCN(Cc1ccc(Cl)nc1)C(=O)c1c(C(F)F)nn(C)c1F [Example 61],2.10,–
CC(C)Oc1ccc(CN(C)C(=O)c2c(C(F)F)nn(C)c2Cl)cn1 [Example 101],2.59,–
CCCN(Cc1cccs1)C(=O)c1c(C(F)F)nn(C)c1F [Example 30],2.77,–
C=CCN(Cc1csc(C)n1)C(=O)c1c(C(F)F)nn(C)c1F [Example 44],2.07,–
CN(Cc1cccnc1Cl)C(=O)c1c(C(F)F)nn(C)c1Cl [Example 51],1.87,–
CN(Cc1ccco1)C(=O)c1c(C(F)F)nn(C)c1Cl [Example 6],2.02,–
Cn1nc(C(F)F)c(C(=O)N(Cc2ccco2)C2CCCCC2)c1Cl [Example 7],3.35,–
CN(Cc1ccnc(Cl)c1)C(=O)c1c(C(F)F)nn(C)c1Cl [Example 53],1.91,–
COCCN(Cc1ccc(Cl)nc1)C(=O)c1c(C(F)F)nn(C)c1F [Example 59],2.02,–
Cn1nc(C(F)F)c(C(=O)N(Cc2ccc(Cl)nc2)C2CC2)c1Cl [Example 66],2.39,–
Cc1occc1C1(NC(=O)c2c(C(F)F)nn(C)c2F)CCCC1 [Example 24],2.92,–
CCN(Cc1cn(CC)nc1C)C(=O)c1c(C(F)F)nn(C)c1Cl [Example 46],1.79,–
CC(C)C(c1cncnc1)N(C)C(=O)c1c(C(F)F)nn(C)c1F (stereo not shown) [Example 20],1.65,–
Cc1ccsc1CN(C(=O)c1c(C(F)F)nn(C)c1F)C1CCCC1 [Example 38],3.46,–
CCN(Cc1ccc(Cl)nc1)C(=O)c1c(C(F)F)nn(C)c1Cl [Example 60],2.23,–
CN(Cc1ccc2nsnc2c1)C(=O)c1c(C(F)F)nn(C)c1Cl [Example 99],2.32,–
Cn1nc(C(F)F)c(C(=O)N(Cc2ccco2)C2CC2)c1Cl [Example 4],2.45,–

Structure (SMILES),logP [1],Efficacy (Pyrenophora teres)
Cn1nc(C(F)F)c(C(=O)NCc2ccco2)c1Cl [Example 9],1.86,–
CC(C1CC1)N(Cc1ccco1)C(=O)c1c(C(F)F)nn(C)c1Cl (stereo not shown) [Example 2],2.98,–
CC(C)N(Cc1cnn(-c2ccc(Cl)cc2)c1)C(=O)c1c(C(F)F)nn(C)c1F [Example 150],3.25,–
CCN(Cc1cnc(Cl)s1)C(=O)c1c(C(F)F)nn(C)c1F [Example 76],2.21,–
CN(Cc1nc(-c2ccccc2)no1)C(=O)c1c(C(F)F)nn(C)c1Cl [Example 113],2.71,–
CN(Cc1ccc(Cl)nc1)C(=O)c1c(C(F)F)nn(C)c1F [Example 63],1.84,–
Cc1ccoc1CN(C)C(=O)c1c(C(F)F)nn(C)c1F [Example 22],2.18,–
Cn1nc(C(F)F)c(C(=O)NC2(c3ccco3)CCCC2)c1Cl [Example 11],2.86,–
Cc1onc(-c2ccccc2)c1CN(C)C(=O)c1c(C(F)F)nn(C)c1F [Example 130],2.44,–
Cn1nc(C(F)F)c(C(=O)NC2(c3cccnc3)CCCC2)c1F [Example 18],0.84,–
CN(Cc1ccnc(Cl)c1)C(=O)c1c(C(F)F)nn(C)c1F [Example 54],1.76,–
CCN(Cc1cnc(Cl)s1)C(=O)c1c(C(F)F)nn(C)c1Cl [Example 77],2.35,–
Cn1nc(C(F)F)c(C(=O)N(Cc2sccc2Br)C2CC2)c1F [Example 135],3.11,–
Cn1nc(C(F)F)c(C(=O)N(Cc2sccc2Br)C2CC2)c1Cl [Example 136],3.29,–
Cn1nc(C(F)F)c(C(=O)NCc2cc3ccccc3s2)c1F [Example 84],2.75,–
CN(Cc1ccco1)C(=O)c1c(C(F)F)nn(C)c1F [Example 1],1.87,–
CN(Cc1cncc(Cl)c1)C(=O)c1c(C(F)F)nn(C)c1Cl [Example 55],1.90,–
Cn1nc(C(F)F)c(C(=O)N(Cc2cccnc2)C2CCCCCC2)c1F [Example 16],1.66,–
Cn1ccc(C2(NC(=O)c3c(C(F)F)nn(C)c3F)CCCC2)n1 [Example 26],2.25,–
Cn1nc(C(F)F)c(C(=O)NCc2csc3ccccc23)c1Cl [Example 87],2.90,–
COCCN(Cc1ccc(Cl)nc1)C(=O)c1c(C(F)F)nn(C)c1Cl [Example 58],2.15,–
Cn1nc(C(F)F)c(C(=O)NC2(c3cc4ccccc4o3)CCCC2)c1Cl [Example 74],3.70,–
Cn1nc(C(F)F)c(C(=O)NCc2ccco2)c1F [Example 10],1.66,–
CCN(Cc1nonc1C)C(=O)c1c(C(F)F)nn(C)c1Cl [Example 27],2.20,–
CN(Cc1ccc(Cl)nc1)C(=O)c1c(C(F)F)nn(C)c1Cl [Example 62],1.98,–
Cn1nc(C(F)F)c(C(=O)N(Cc2ccc(Cl)nc2)C2CCCC2)c1F [Example 57],2.80,–
